Numbered stars: 1 amine (or outer) side, 2 acyl side, 3 side chain; on linkers, the order of the positions; unused ones are H or OH. Bridge positions count the residues as written; N and C are the ends. Square brackets hold non-standard residues; d marks the D form. Peptide text beside a SMILES is read from it. * marks the point of attachment. C20 diacid = O=C(O)CCCCCCCCCCCCCCCCCCC(=O)*; γGlu = O=C(O)[C@H](CCC(=O)[*:2])N[*:1]; Hyp = O=C(O)[C@@H]1C[C@@H](O)CN1; NMeI = CC[C@H](C)[C@H](NC)C(=O)O; Sar = CNCC(=O)O

The target of the assay is T1, hAMY3 receptor (Homo sapiens, UniProt O60896+P30988).
T1 sequence (P30988 25-474): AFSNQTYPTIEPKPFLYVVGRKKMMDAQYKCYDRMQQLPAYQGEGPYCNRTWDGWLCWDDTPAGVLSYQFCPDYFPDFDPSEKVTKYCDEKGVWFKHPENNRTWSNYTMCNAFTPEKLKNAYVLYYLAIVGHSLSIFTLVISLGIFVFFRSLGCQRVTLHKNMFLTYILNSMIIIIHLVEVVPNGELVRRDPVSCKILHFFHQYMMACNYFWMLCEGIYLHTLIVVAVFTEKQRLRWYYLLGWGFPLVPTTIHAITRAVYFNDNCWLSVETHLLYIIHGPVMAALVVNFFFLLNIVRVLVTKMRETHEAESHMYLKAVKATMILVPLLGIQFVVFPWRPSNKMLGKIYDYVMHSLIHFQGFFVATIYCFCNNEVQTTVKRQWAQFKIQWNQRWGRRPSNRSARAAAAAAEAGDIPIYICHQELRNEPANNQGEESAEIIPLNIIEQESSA
T1 sequence (O60896 24-148 partner): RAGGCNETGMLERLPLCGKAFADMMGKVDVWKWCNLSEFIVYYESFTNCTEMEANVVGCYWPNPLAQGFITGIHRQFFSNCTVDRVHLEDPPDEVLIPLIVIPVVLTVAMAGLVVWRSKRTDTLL
The assay is described as follows: cAMP assay for in vitro receptor activation, hAMY3-R. The format is cell-based. The conditions noted are these: cAMP assay, hAMY3 receptor; read-out: hAMY3R EC50. How it is done:
General Protocols for cAMP Assays for Measuring In Vitro Receptor Activation
Cells stably overexpressing the hAMY3 receptor were obtained from Ogeda (now Astellas Pharma), sub-cloned and a monoclonal cell-line with an appropriate assay-window was expanded, aliquoted and frozen.
An aliquot was thawed and plated in DPBS with 0.05% casein and 0.5 mM IBMX as 2000 cells/well in a 384-well format. The cells were then immediately stimulated for 30 min at room temperature with graded doses of test compound using human amylin (Bachem, cat no. H-7905) as a positive control. cAMP accumulation was measured using a Cisbio assay for Gs coupled receptors (cat. no. 62AM4PEC), where the assay reagents were added as per the manufacturer's instructions and time-resolved fluorescence energy transfer recorded after one hour.
On to `CC(C)C[C@H](NC(=O)[C@H](CCCNC(=N)N)NC(=O)[C@H](CCC(N)=O)NC(=O)[C@@H](NC(=O)[C@@H](NC(=O)[C@@H]1CSSC[C@H](NC(=O)CN)C(=O)N[C@@H](CCCNC(=N)N)C(=O)N[C@@H](Cc2ccccc2)C(=O)NCC(=O)N[C@@H]([C@@H](C)O)C(=O)N1)[C@@H](C)O)C(C)C)C(=O)N[C@@H](C)C(=O)N[C@@H](Cc1c[nH]cn1)C(=O)N[C@@H](Cc1ccccc1)C(=O)N[C@@H](CC(C)C)C(=O)N[C@@H](Cc1ccc(O)cc1)C(=O)N[C@@H](CCC(N)=O)C(=O)N[C@@H](Cc1ccccc1)C(=O)N[C@H](C(=O)N[C@@H](CC(=O)O)C(=O)N[C@@H](CCCCN)C(=O)N[C@@H](CC(=O)O)C(=O)N[C@@H](CCCCN)C(=O)N[C@@H](CC(=O)O)C(=O)N[C@@H](CC(N)=O)C(=O)N[C@H](C(=O)N[C@@H](C)C(=O)N1CCC[C@H]1C(=O)N[C@@H](CCCNC(=N)N)C(=O)N[C@H](C(=O)N[C@@H](CC(N)=O)C(=O)N[C@H](C(=O)NCC(=O)N[C@@H](CO)C(=O)N[C@@H](CC(N)=O)C(=O)N[C@H](C(=O)N[C@@H](Cc1ccc(O)cc1)C(N)=O)[C@@H](C)O)C(C)C)[C@@H](C)O)C(C)C)[C@@H](C)O` [compound 56] (H-GCRFGTCTVQRLAHFLYQFTDKDKDNVAPRTNVGSNTY-NH2; disulfide 2-7; N-terminus assumed), for which the EC50 is 0.012 nM. Then `CC[C@H](C)[C@H](NC(=O)[C@H](CCC(N)=O)NC(=O)[C@H](Cc1c[nH]cn1)NC(=O)[C@H](C)NC(=O)[C@H](CC(C)C)NC(=O)[C@H](CCCNC(=N)N)NC(=O)[C@H](CCC(N)=O)NC(=O)[C@@H](NC(=O)[C@@H](NC(=O)[C@@H]1CSSC[C@H](NC(=O)[C@H](CCCCN)NC(=O)CC[C@H](NC(=O)CCCCCCCCCCCCCCCCCCC(=O)O)C(=O)O)C(=O)N[C@@H](CC(N)=O)C(=O)N[C@@H]([C@@H](C)O)C(=O)N[C@@H](C)C(=O)N[C@@H]([C@@H](C)O)C(=O)N1)[C@@H](C)O)C(C)C)C(=O)N[C@@H](Cc1ccc(O)cc1)C(=O)N[C@@H](CCC(N)=O)C(=O)N[C@@H](Cc1ccccc1)C(=O)N[C@@H](CO)C(=O)N[C@@H](CC(=O)O)C(=O)N[C@@H](CCCCN)C(=O)N[C@@H](CC(=O)O)C(=O)N[C@@H](CCCCN)C(=O)N[C@@H](CC(=O)O)C(=O)N[C@@H](CC(N)=O)C(=O)N[C@H](C(=O)N[C@@H](C)C(=O)N1CCC[C@H]1C(=O)N1CCC[C@H]1C(=O)N[C@H](C(=O)N[C@@H](CC(N)=O)C(=O)N[C@H](C(=O)NCC(=O)N[C@@H](CO)C(=O)N[C@@H](CC(N)=O)C(=O)NCC(=O)N1C[C@H](O)C[C@H]1C(N)=O)C(C)C)[C@@H](C)O)C(C)C` [compound 57] ({C20 diacid-γGlu}-KCNTATCTVQRLAHQIYQFSDKDKDNVAPPTNVGSNG[Hyp]-NH2; disulfide 2-7), with 0.012 nM; and `CC[C@H](C)[C@H](NC(=O)[C@H](CCC(N)=O)NC(=O)[C@H](Cc1c[nH]cn1)NC(=O)[C@H](C)NC(=O)[C@H](CC(C)C)NC(=O)[C@H](CCCNC(=N)N)NC(=O)[C@H](CCC(N)=O)NC(=O)[C@@H](NC(=O)[C@@H](NC(=O)[C@@H]1CSSC[C@H](NC(=O)[C@H](CCCCN)NC(=O)CC[C@H](NC(=O)CCCCCCCCCCCCCCCCCCC(=O)O)C(=O)O)C(=O)N[C@@H](CC(N)=O)C(=O)N[C@@H](Cc2ccccc2)C(=O)N[C@@H](C)C(=O)N[C@@H]([C@@H](C)O)C(=O)N1)[C@@H](C)O)C(C)C)C(=O)N[C@@H](Cc1ccc(O)cc1)C(=O)N[C@@H](CCC(N)=O)C(=O)N[C@@H](Cc1ccccc1)C(=O)N[C@H](C(=O)N[C@@H](CC(=O)O)C(=O)N[C@@H](CCCCN)C(=O)N[C@@H](CC(=O)O)C(=O)N[C@@H](CCCCN)C(=O)N[C@@H](CC(=O)O)C(=O)N[C@@H](CC(N)=O)C(=O)N[C@H](C(=O)N[C@@H](C)C(=O)N1CCC[C@H]1C(=O)N1CCC[C@H]1C(=O)N[C@H](C(=O)N[C@@H](CCC(=O)O)C(=O)N[C@H](C(=O)NCC(=O)N[C@@H](CO)C(=O)N[C@@H](CC(N)=O)C(=O)NCC(=O)N1C[C@H](O)C[C@H]1C(N)=O)C(C)C)[C@@H](C)O)C(C)C)[C@@H](C)O` [compound 68] ({C20 diacid-γGlu}-KCNFATCTVQRLAHQIYQFTDKDKDNVAPPTEVGSNG[Hyp]-NH2; disulfide 2-7), with 0.013 nM; and `CC[C@H](C)[C@@H](C(=O)N[C@@H](CC(C)C)C(=O)N[C@@H](CO)C(=O)N[C@@H](CO)C(=O)N[C@H](C(=O)N[C@@H](CCC(=O)O)C(=O)N[C@H](C(=O)NCC(=O)N[C@@H](CO)C(=O)N[C@@H](CC(N)=O)C(=O)N[C@H](C(=O)N1C[C@H](O)C[C@H]1C(N)=O)[C@@H](C)O)C(C)C)[C@@H](C)O)N(C)C(=O)[C@H](C)NC(=O)CN(C)C(=O)[C@H](Cc1ccccc1)NC(=O)[C@H](CO)NC(=O)[C@H](CO)NC(=O)[C@H](CCCNC(=N)N)NC(=O)[C@H](CCC(N)=O)NC(=O)[C@H](CC(C)C)NC(=O)[C@H](Cc1ccccc1)NC(=O)[C@H](Cc1c[nH]cn1)NC(=O)[C@H](C)NC(=O)[C@H](CC(C)C)NC(=O)[C@H](CCCNC(=N)N)NC(=O)[C@H](CCC(=O)O)NC(=O)[C@@H](NC(=O)[C@H](C)NC(=O)[C@@H]1CSSC[C@H](NC(=O)[C@H](CCCNC(=N)N)NC(=O)CC[C@H](NC(=O)CCCCCCCCCCCCCCCCCCC(=O)O)C(=O)O)C(=O)N[C@@H](CCC(N)=O)C(=O)N[C@@H]([C@@H](C)O)C(=O)N[C@@H](C)C(=O)N[C@@H]([C@@H](C)O)C(=O)N1)[C@@H](C)O` [compound 80] ({C20 diacid-γGlu}-RCQTATCATERLAHFLQRSSF[Sar]A[NMeI]LSSTEVGSNT[Hyp]-NH2; disulfide 2-7), with 0.015 nM. As for `CC[C@H](C)[C@H](NC(=O)[C@H](CCC(N)=O)NC(=O)[C@H](Cc1c[nH]cn1)NC(=O)[C@H](C)NC(=O)[C@H](CC(C)C)NC(=O)[C@H](CCCNC(=N)N)NC(=O)[C@H](CCC(N)=O)NC(=O)[C@@H](NC(=O)[C@@H](NC(=O)[C@@H]1CSSC[C@H](NC(=O)[C@H](CCCCN)NC(=O)CC[C@H](NC(=O)CCCCCCCCCCCCCCCCCCC(=O)O)C(=O)O)C(=O)N[C@@H](CC(N)=O)C(=O)N[C@@H]([C@@H](C)O)C(=O)N[C@@H](C)C(=O)N[C@@H]([C@@H](C)O)C(=O)N1)[C@@H](C)O)C(C)C)C(=O)N[C@@H](Cc1ccc(O)cc1)C(=O)N[C@@H](CCC(N)=O)C(=O)N[C@@H](Cc1ccccc1)C(=O)N[C@H](C(=O)N[C@@H](CC(N)=O)C(=O)N[C@@H](CCCCN)C(=O)N[C@@H](CC(=O)O)C(=O)N[C@@H](CCCCN)C(=O)N[C@@H](CC(=O)O)C(=O)N[C@@H](CC(N)=O)C(=O)N[C@H](C(=O)N[C@@H](C)C(=O)N1CCC[C@H]1C(=O)N1CCC[C@H]1C(=O)N[C@H](C(=O)N[C@@H](CC(N)=O)C(=O)N[C@H](C(=O)NCC(=O)N[C@@H](CO)C(=O)N[C@@H](CC(N)=O)C(=O)NCC(=O)N1C[C@H](O)C[C@H]1C(N)=O)C(C)C)[C@@H](C)O)C(C)C)[C@@H](C)O` [compound 82] ({C20 diacid-γGlu}-KCNTATCTVQRLAHQIYQFTNKDKDNVAPPTNVGSNG[Hyp]-NH2; disulfide 2-7), the EC50 came out at 0.015 nM. Regarding `CC[C@H](C)[C@H](NC(=O)[C@H](CCC(N)=O)NC(=O)[C@H](Cc1c[nH]cn1)NC(=O)[C@H](C)NC(=O)[C@H](CC(C)C)NC(=O)[C@H](CCCNC(=N)N)NC(=O)[C@H](CCC(N)=O)NC(=O)[C@@H](NC(=O)[C@@H](NC(=O)[C@@H]1CSSC[C@H](NC(=O)[C@H](CCCCN)NC(=O)CC[C@H](NC(=O)CCCCCCCCCCCCCCCCCCC(=O)O)C(=O)O)C(=O)N[C@@H](CC(N)=O)C(=O)N[C@@H]([C@@H](C)O)C(=O)N[C@@H](C)C(=O)N[C@@H]([C@@H](C)O)C(=O)N1)[C@@H](C)O)C(C)C)C(=O)N[C@@H](Cc1ccc(O)cc1)C(=O)N[C@@H](CCC(N)=O)C(=O)N[C@@H](Cc1ccccc1)C(=O)N[C@@H](C)C(=O)N[C@@H](CC(=O)O)C(=O)N[C@@H](CCCCN)C(=O)N[C@@H](CC(=O)O)C(=O)N[C@@H](CCCCN)C(=O)N[C@@H](CC(=O)O)C(=O)N[C@@H](CC(N)=O)C(=O)N[C@H](C(=O)N[C@@H](C)C(=O)N1CCC[C@H]1C(=O)N1CCC[C@H]1C(=O)N[C@H](C(=O)N[C@@H](CC(N)=O)C(=O)N[C@H](C(=O)NCC(=O)N[C@@H](CO)C(=O)N[C@@H](CC(N)=O)C(=O)NCC(=O)N1C[C@H](O)C[C@H]1C(N)=O)C(C)C)[C@@H](C)O)C(C)C` [compound 83] ({C20 diacid-γGlu}-KCNTATCTVQRLAHQIYQFADKDKDNVAPPTNVGSNG[Hyp]-NH2; disulfide 2-7), the concentration for a half-maximal effect (EC50) turned out to be 0.015 nM.

The record behind these values is patent US12139520B2 (priority 2020, dated 2024).
